Laboratory results taken from patent US7538182B2, “Polypeptide and protein derivatives and process for their preparation” (Amylin Pharmaceuticals, Inc., priority 1986, dated 2009).

Columns and labels:
[1] = Removal of iron with propionic acid/EDTA, followed by spectroscopy (loss of the 400-450 nm peak); assay type: physicochemical; conditions: test solution of 1 mM ferrioxamine B
Text: The pink colour of the solution was rapidly lost. If desired the reaction can be followed spectroscopically, since after removal of iron the peak between 400 nm and 450 nm, characteristic of the ferrioxamine B conjugate will disappear completely.

[2] = assay type: physicochemical
Text: Once the iron had been removed, the solution was adjusted to pH 5.5 with 1.7 M sodium acetate buffer. The resulting precipitate was carefully washed by centrifugation in 0.7 M sodium acetate buffer, until the residual EDTA concentration could be expected to be negligible compared to that of the conjugate.

Molecule	rate of the removal of iron ([1]; pH 2.5)	half-time for the removal of iron ([1]; pH 3)	half-time for the removal of iron ([1]; pH 3.5)	storage stability (capacity to be labelled) [2]
CC(=O)N([O-])CCCCCNC(=O)CCC(=O)N([O-])CCCCCNC(=O)CCC(=O)N([O-])CCCCCN.[Fe+3] [ferrioxamine B]	too rapid to follow	approximately 90 seconds	approximately 340 sec	
des-Ala^B30-insulin/desferrioxamine B conjugate [iron-free protein derivative]				without apparent impairment
